Test results as given in article PMC12040169 (PLOS Biology, 2025).

Assay: in vitro
Details: human, hela cells, % viability

| Compound | viability at 28.5 h, 10 µM [%] |
| --- | --- |
| Cc1ccc(Cl)cc1NC(=O)c1cnc2scc(C)n2c1=O [CBK287464] | 98.7 |
| Cc1csc2ncc(C(=O)Nc3cc(C(F)(F)F)ccc3Cl)c(=O)n12 [CBK287465] | 94.4 |
| O=C(CCn1c(=O)oc2ccccc21)Nc1ccncc1 [CBK287466] | 92.5 |
| COc1cccc2sc(Nc3nc4ccc(NC(C)=O)cc4s3)nc12 [CBK287468] | 94.9 |
| COc1cccc2sc(Nc3nc4ccc(S(C)(=O)=O)cc4s3)nc12 [CBK287472] | 104 |
| COc1cccc2sc(Nc3nnc(-c4cccs4)o3)nc12 [CBK287473] | 85.4 |
| CCOc1cccc2sc(Nc3nc4ccc(NC(C)=O)cc4s3)nc12 [CBK287474] | 90.8 |
| CC(=O)Nc1ccc2nc(Nc3nc4c(F)cccc4s3)sc2c1 [CBK287475] | 89.8 |
| CS(=O)(=O)c1ccc2nc(Nc3nc4c(F)cccc4s3)sc2c1 [CBK287478] | 101 |
| COc1ccc2nc(Nc3nc(-c4cccnc4)cs3)sc2c1 [CBK287482] | 89.1 |
| COc1ccc2nc(Nc3nc(C)c(C(C)=O)s3)sc2c1 [CBK287483] | 94.8 |
| COc1ccc2nc(NCc3ccccc3)sc2c1 [CBK287485] | 66.8 |
| COc1ccc2nc(Nc3nnc(-c4ccco4)o3)sc2c1 [CBK287486] | 102 |
| Fc1ccc2nc(Nc3nc(-c4ccncc4)cs3)sc2c1 [CBK287487] | 105 |
| CC(C)(C)c1csc(Nc2nc3cc4c(cc3s2)OCO4)n1 [CBK287491] | 93.9 |
| c1coc(-c2nnc(Nc3nc4cc5c(cc4s3)OCO5)o2)c1 [CBK287492] | 89.8 |
| COc1ccc2nc(N3CCc4ccccc4C3)sc2c1 [CBK287493] | 102 |
| c1c2c(cc3sc(N4CCCC4)nc13)OCCO2 [CBK287496] | 69.6 |
| c1ccc2c(c1)CCN(c1nc3cc4c(cc3s1)OCCO4)C2 [CBK287498] | 82.8 |
| CCn1c(C2CC(=O)N(c3ccc(C)cc3C)C2)nc2ccccc21 (stereo not drawn) [CBK287505] | 83.1 |
| O=c1cc(N2CCN(c3ccccc3)CC2)[nH]c(=O)n1-c1ccccc1Cl [CBK287506] | 101 |
| O=c1cc(Nc2ccc3c(c2)OCO3)[nH]c(=O)n1-c1ccc(Cl)cc1 [CBK287507] | 86.6 |
| Cc1ccccc1-n1c(=O)cc(N2CCN(c3ccc(F)cc3)CC2)[nH]c1=O [CBK287508] | 95.1 |
| O=C(CSc1ncnc2ccccc12)NCc1ccco1 [CBK287509] | 98.8 |

| Compound | viability at 28.5 h, 10 µM [%] |
| --- | --- |
| O=C(CSc1ncnc2ccccc12)Nc1nc2ccccc2s1 [CBK287510] | 85.5 |
| CC1CCN(C(=O)CSc2ccc3nnc(-c4ccccc4)n3n2)CC1 [CBK287512] | 77.9 |
| O=C(CSc1ccc2nnc(-c3ccccc3)n2n1)Nc1ccccc1 [CBK287513] | 82.7 |
| O=C(CSc1ccc2nnc(-c3ccccc3)n2n1)Nc1nccs1 [CBK287516] | 98.6 |
| Cc1ccc(-c2nnc3ccc(SCC(=O)NC4CCCC4)nn23)cc1 [CBK287523] | 88.8 |
| CC(=O)C(Sc1ccc2nnc(-c3ccc(C)cc3)n2n1)C(C)=O [CBK287525] | 98.9 |
| O=C(Cn1cnc2c(cnn2-c2ccccc2)c1=O)N1CCc2ccccc21 [CBK287529] | 91.7 |
| Cc1ccccc1NC(=O)Cn1cnc2c(cnn2-c2ccccc2)c1=O [CBK287530] | 104 |
| Cc1ccc(-n2ncc3c(=O)n(CC(=O)N4CCCCC4)cnc32)cc1 [CBK287532] | 101 |
| Cc1ccc(NC(=O)Cn2cnc3c(cnn3-c3ccc(C)cc3)c2=O)cc1 [CBK287534] | 104 |
| Cc1ccc(-n2ncc3c(=O)n(CC(=O)NC4CCCCC4)cnc32)cc1 [CBK287536] | 78.1 |
| Cc1ccc(-n2ncc3c(=O)n(CC(=O)Nc4ccccc4)cnc32)cc1C [CBK287539] | 87.3 |
| Cc1ccc(Cn2cnc3c(cnn3-c3ccc(C)c(C)c3)c2=O)cc1 [CBK287540] | 108 |
| CC(C)(C)n1ncc2c(=O)n(CC(=O)Nc3ccccc3)cnc21 [CBK287541] | 115 |
| Cc1ccc(-n2nnc3c(SCC(=O)Nc4ccc(F)cc4)ncnc32)cc1 [CBK287542] | 112 |
| COc1cccc(-n2nnc3c(SCC(N)=O)ncnc32)c1 [CBK287543] | 75 |
| O=S(=O)(NCCc1csc(-c2cccnc2)n1)c1cccnc1 [CBK287546] | 91.8 |
| O=S(=O)(Nc1ccc(-c2nc3cccnc3s2)cc1)c1ccccc1 [CBK287547] | 116 |
| COc1ccc(-n2c(=O)[nH]cc(C(=O)Nc3cccc(Cl)c3C)c2=O)cc1 [CBK287549] | 118 |
| Cc1ccc(-n2c(=O)[nH]cc(C(=O)Nc3ccc(C)c(F)c3)c2=O)cc1C [CBK287550] | 97.5 |
| Cc1ccc(-n2c(=O)[nH]cc(C(=O)Nc3cccc(Cl)c3C)c2=O)cc1C [CBK287551] | 101 |
| CCOc1ccc(NC(=O)c2c[nH]c(=O)n(-c3ccc(F)cc3)c2=O)cc1 [CBK287553] | 107 |
| CCNC(=O)c1cc2c(=O)n3ccccc3nc2n1C [CBK287556] | 104 |
| O=C(Cn1cnc2c(oc3ccccc32)c1=O)Nc1ccc2c(c1)OCO2 [CBK287557] | 118 |

| Compound | viability at 28.5 h, 10 µM [%] |
| --- | --- |
| CC1(C)CC(=O)c2sc(NC(=O)CN3C(=O)CCC3=O)nc2C1 [CBK287558] | 98.2 |
| CCC(=O)Nc1ccc(-c2nc3ccccc3[nH]2)cc1 [CBK287561] | 98.7 |
| O=C(Nc1nc(-c2cccnc2)cs1)c1ccccc1 [CBK287569] | 91.3 |
| CC(=O)Nc1ccc2nc(NC(=O)c3ccc4c(c3)OCCO4)sc2c1 [CBK287571] | 101 |
| O=C(O)CCCNc1ncnc2c1oc1ccccc12 [CBK287573] | 101 |
| COc1ccc(-n2c(=O)c3ccccc3n(CC(=O)NC3CCCC3)c2=O)cc1 [CBK287574] | 92.2 |
| Cn1cnnc1SCC(=O)N1CCc2ccccc21 [CBK287576] | 82.7 |
| COc1cc(C)c(C)cc1S(=O)(=O)n1cnc2ccccc21 [CBK287578] | 89.2 |
| COc1cc(C)c(C)cc1S(=O)(=O)n1ccnc1C [CBK287579] | 108 |
| OCCN1CCN(c2ncnc3scc(-c4ccccc4)c23)CC1 [CBK287582] | 94.6 |
| COCCNc1ncnc2sc3c(c12)CCCC3 [CBK287583] | 98.4 |
| O=C(CSc1nnc(-c2ccncc2)o1)Nc1ccccc1 [CBK287586] | 91.3 |
| COc1ccc(C(=O)Nc2nnc(-c3ccccc3OC)o2)cc1OC [CBK287589] | 86.3 |
| COc1ccccc1-c1nnc(NC(=O)COc2ccccc2)o1 [CBK287590] | 106 |
| COc1ccc(-c2nnc(NC(=O)C3CCCCC3)o2)cc1 [CBK287592] | 83.3 |
| CCCC(=O)Nc1nnc(-c2ccc(Cl)cc2)o1 [CBK287594] | 91.8 |
| O=C(Nc1nnc(-c2ccccc2)o1)c1ccc2ncsc2c1 [CBK287598] | 94.4 |
| O=C(COc1ccccc1)Nc1nnc(-c2ccccc2)o1 [CBK287599] | 99.8 |
| CN(C)c1cccc(C(=O)Nc2nc3ccc(S(N)(=O)=O)cc3s2)c1 [CBK287602] | 95.8 |
| Cc1ccc(C(=O)Nc2nc3ccc(S(=O)(=O)N(C)C)cc3s2)cc1 [CBK287603] | 93.1 |
| O=S(=O)(c1ccccc1)c1nc(-c2ccco2)oc1NCc1cccnc1 [CBK287610] | 69.5 |
| OCCN1CCN(C(c2ccccc2)c2sc3ncnn3c2O)CC1 (stereo not drawn) [CBK287611] | 82.5 |
| Cc1cc(C)c2sc(NC(=O)c3ccccc3)nc2c1 [CBK287614] | 104 |
| O=C(Nc1nc2c(F)cc(F)cc2s1)c1ccc(F)cc1 [CBK287617] | 101 |

| Compound | viability at 28.5 h, 10 µM [%] |
| --- | --- |
| O=C(CSc1ccc2nnc(-c3ccccn3)n2n1)N1CCCCC1 [CBK287621] | 101 |
| CCCCC(Sc1ccc2nnc(-c3ccccn3)n2n1)C(=O)O (stereo not drawn) [CBK287622] | 112 |
| CCC(Sc1ccc2nnc(-c3cccnc3)n2n1)C(=O)O (stereo not drawn) [CBK287623] | 110 |
| CC(=O)Nc1nnc(SCC(=O)NCc2ccc3c(c2)OCO3)s1 [CBK287626] | 94 |
| NC(=O)CSc1nnc(NC(=O)c2ccc(Cl)cc2Cl)s1 [CBK287627] | 86.4 |
| NC(=O)CSc1nnc(NC(=O)c2ccccc2)s1 [CBK287628] | 92.8 |
| Cc1ccc(C(=O)NCCc2nnc3ccc(Cl)nn23)cc1 [CBK287636] | 89.5 |
| c1ccc(CSc2ccc(-c3ccncc3)nn2)nc1 [CBK287638] | 101 |
| CCn1c(SCc2cccnc2)nc2c(c1=O)SC(C)C2 (stereo not drawn) [CBK287643] | 87.7 |
| COc1ccnc2c1c(=O)n(Cc1ccc(Cl)cc1)c(=O)n2C [CBK287645] | 66.9 |
| Fc1ccc2nc(NCC3CCCO3)sc2c1 (stereo not drawn) [CBK287647] | 110 |
| COc1ccc(NC(=O)Cc2csc(NC(=O)c3ccco3)n2)c(OC)c1 [CBK287649] | 91.7 |
| Cc1cc(NC(=O)c2ccccc2)n(-c2nc(C)c(C)c(=O)[nH]2)n1 [CBK287655] | 105 |
| Cc1ccc(S(=O)(=O)Nc2ccc3c(c2)CC(=O)N3)cc1 [CBK287657] | 92.1 |
| O=C(Cc1ccccc1)Nc1nnc(Cc2ccc3c(c2)OCCO3)o1 [CBK287661] | 94.2 |
| O=C(c1ccccc1)N1CCN(c2ccc(-n3cccn3)nn2)CC1 [CBK287662] | 92.2 |
| COc1ccc(NC(=O)c2cc3nc(C)ccc3o2)cc1 [CBK287663] | 102 |
| Cc1ccc(Nc2nc(N3CCOCC3)nc3nccnc23)cc1 [CBK287664] | 120 |
| Cc1nc2sccn2c(=O)c1NC(=O)c1ccccn1 [CBK287665] | 87.2 |
| O=C(Cn1c(=O)n(Cc2cccnc2)c(=O)c2ncccc21)NC1CCCC1 [CBK287666] | 103 |
| COc1ccc(NC(=O)c2cc(C(C)C)n(-c3nc4ccccc4s3)n2)cc1 [CBK287667] | 100 |
